The source of these data is ChEMBL document CHEMBL3784969, “Pharmacokinetics of flutamide in patients with renal insufficiency” (Br J Clin Pharmacol, 1999).

Structures are written as SMILES.

The data set in a line: Plasma protein binding in healthy geriatric volunteer by equilibrium dialysis method. The following applies: human, read-out: PPB. The data set is classed as ADME, cell-free.

In the case of `CC(C)(O)C(=O)Nc1ccc([N+](=O)[O-])c(C(F)(F)F)c1` [HYDROXYFLUTAMIDE], the fraction unbound is less than 0.06.
